{"source": "patent US20030159171A1", "about": "“Novel plant genes and uses thereof” (Syngenta Participations AG, priority 1999, published 2003)", "test_system": "sugarbeet NIM-like clone (SEQ ID NO:39 and 63)", "experiment": "Northern analysis of sugarbeet NIM-like clone expression after BTH treatment", "format": "in vivo, Beta vulgaris", "settings": "after 100 μM or 300 μM BTH treatment"}
{"smiles": "CSC(=O)c1cccc2nnsc12", "note": "[BTH, benzo(1,2,3)thiadiazole-7-carbothioic acid S-methyl ester]", "values": [{"measurement": "increase of expression of the sugarbeet NIM-like clone (Northern data)", "result": "three to seven"}]}
